Experimental data from patent US8987235B2, “N-cyclopropyl-(20R)-2-methylene-19,26,27-trinor-25-aza-vitamin D analogs and their uses” (Wisconsin Alumni Research Foundation, priority 2011, dated 2015).
pEC50, pKi: −log10 of the molar value. Entries after “also recorded” stand apart in the source; their conditions may differ.

Columns and labels:
[1] = system: vitamin D-deficient rats; assay: Bone calcium mobilization (serum calcium); format: in vivo, Sprague-Dawley rats
Excerpt: Intestinal Calcium Transport and Bone Calcium Mobilization
Male, weanling Sprague-Dawley rats were placed on Diet 11 (Suda et al, J. Nutr. 100:1049, 1970) (0.47% Ca)+vitamins AEK for one week followed by Diet 11 (0.02% Ca)+vitamins AEK for 3 weeks. The rats were then switched to the same diet containing 0.47% Ca for one week followed by two weeks on the same diet containing 0.02% Ca. Dose administration began during the last week on 0.02% calcium diet. Four consecutive ip doses were given approximately 24 hours apart. Twenty-four hours after the last dose, blood was collected from the severed neck and the concentration of serum calcium determined by atomic absorption spectrometry as a measure of bone calcium mobilization. The first 10 cm of the intestine was also collected for intestinal calcium transport analysis using the everted gut sac method.

[2] = system: Human promyelocytic leukemia (HL60) cells; assay: HL-60 differentiation (nitro blue tetrazolium reduction); format: cell-based; settings: four days, FIG. 2
Method: The study drugs were dissolved in ethanol and the concentrations determined using UV spectrophotometry. Serial dilutions were prepared so that a range of drug concentrations could be tested without changing the final concentration of ethanol (≦0.2%) present in the cell cultures.
Human promyelocytic leukemia (HL60) cells were grown in RPMI-1640 medium containing 10% fetal bovine serum. The cells were incubated at 37° C. in the presence of 5% CO2.
HL60 cells were plated at 1.2×10^5 cells/ml. Eighteen hours after plating, cells in duplicate were treated with drug. Four days later, the cells were harvested and a nitro blue tetrazolium reduction assay was performed (Collins et al., 1979; J. Exp. Med. 149:969-974). The percentage of differentiated cells was determined by counting a total of 200 cells and recording the number that contained intracellular black-blue formazan deposits. Verification of differentiation to monocytic cells was determined by measuring phagocytic activity (data not shown).

[3] = system: 24-hydroxylase (24 Ohase) gene promoter in ROS 17/2.8 (bone) cells; assay: In vitro transcription assay (24-hydroxylase promoter luciferase reporter); format: cell-based; settings: for pEC50: ROS 17/2.8 cells, 24-hydroxylase promoter luciferase, 16 h, FIG. 3, read-out: EC50, transcriptional activity in bone cells
Method: In Vitro Transcription Assay Transcription activity was measured in ROS 17/2.8 (bone) cells that were stably transfected with a 24-hydroxylase (24 Ohase) gene promoter upstream of a luciferase reporter gene (Arbour et al., 1998). Cells were given a range of doses. Sixteen hours after dosing the cells were harvested and luciferase activities were measured using a luminometer. RLU=relative luciferase units.

[4] = molecular target: T1, full-length recombinant rat vitamin D receptor (Rattus norvegicus, UniProt P13053); assay: biochemical
T1 sequence (P13053 1-423): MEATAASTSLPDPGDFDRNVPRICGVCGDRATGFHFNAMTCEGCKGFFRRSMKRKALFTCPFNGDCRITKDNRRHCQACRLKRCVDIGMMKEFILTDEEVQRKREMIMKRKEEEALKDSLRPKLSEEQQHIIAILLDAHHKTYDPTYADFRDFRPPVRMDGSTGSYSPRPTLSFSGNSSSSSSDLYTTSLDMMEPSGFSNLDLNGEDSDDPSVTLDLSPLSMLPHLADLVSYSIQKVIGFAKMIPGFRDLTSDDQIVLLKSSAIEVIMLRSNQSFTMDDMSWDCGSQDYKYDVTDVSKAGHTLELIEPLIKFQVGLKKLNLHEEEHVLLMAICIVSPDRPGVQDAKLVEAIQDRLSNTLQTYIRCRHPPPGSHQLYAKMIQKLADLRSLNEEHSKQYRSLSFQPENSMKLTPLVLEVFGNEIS

[5] = system: vitamin D-deficient rats; assay: Intestinal calcium transport (everted gut sac method); format: in vivo, Sprague-Dawley rats; settings: low calcium diet, 4 ip doses, relative to 1,25(OH)2D3, FIG. 5
Excerpt: Dose administration began during the last week on 0.02% calcium diet. […] The first 10 cm of the intestine was also collected for intestinal calcium transport analysis using the everted gut sac method.

| pKi [4] | pEC50 ([2]; Homo sapiens, HL-60, 96 h) | SMILES | serum calcium levels (in words) ([1]; 87 pmol and 780 pmol dosages, rats on 0.02% Ca diet, listed as 1,25(OH)2D3) | pEC50 [2] | pEC50 [3] | times less potent than 1,25(OH)2D3 in promoting intestinal calcium transport [5] | times less potent than 1,25(OH)2D3 in releasing bone calcium stores ([1]; rats, low calcium diet, 4 ip doses, relative to 1,25(OH)2D3, FIG. 4) | times less potent than 1,25(OH)2D3 in increasing transcription of the 24-hydroxylase gene ([3]; bone cells, relative to 1,25(OH)2D3) |
| --- | --- | --- | --- | --- | --- | --- | --- | --- |
|  |  | C=C1/C(=C\C=C2/CCC[C@]3(C)[C@@H]([C@H](C)CCCC(C)(C)O)CC[C@@H]23)C[C@@H](O)C[C@@H]1O [1α,25-dihydroxyvitamin D3, reference compound] | increased serum calcium levels; also recorded: significant increases in serum calcium | 8.70 | 9.70 |  |  |  |
| 8.52 | 8.52 | C=C1[C@H](O)CC(=C/C=C2\CCC[C@]3(C)[C@@H]([C@H](C)CCCNC4CC4)CC[C@@H]23)C[C@H]1O [CPA-1, N-cyclopropyl-(20R)-2-methylene-19,26,27-trinor-25-aza-1α-hydroxyvitamin D3] |  |  | 8.52 | about 20 times | about 400 times | about 10 times |
